Results: patent publication US20070099877A1, “N-aryl-thienopyrimidin-4-amines and analogs as activators of caspases and inducers of apoptosis and the use thereof” (Cytovia, Inc., priority 2005, published 2007)
Counter-ions that a name gives are not always drawn. Like-named read-outs stand apart in the source and are kept apart here.

Tests used:
Format in all cases: cell-based
[1] = tested on: human breast cancer cell line T-47D; assay: Caspase cascade activation (DEVD-R110 fluorogenic substrate) in T-47D cells; settings: Homo sapiens, T47D
Summary of the method: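 Cells were exposed to compound at 0.016 to 10 μM final for 24 h or 48 h at 37 °C. They were then lysed with 14 μM N-(Ac-DEVD)-N′-ethoxycarbonyl-R110 in lysolecithin/DTT/PIPES buffer pH 7.2 for 3 h at room temperature (ex 485/em 530 nm). EC50 came from a sigmoidal fit of net RFU relative to untreated control.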

[2] = tested on: human lung cancer cell line H1299; assay: Inhibition of cell proliferation (GI50) in H1299 cells; settings: NCI-H1299, Table III, 48 h
Description: (§1) Human breast cancer cell lines T-47D, MX-1 and MDAMB435, human colon cancer cell line HT29, and human lung cancer cell line H1299 were grown and harvested as in Example 75. An aliquot of […] of cells (4.4×10^4 cells/mL) was added to a well of a 96-well microtiter plate containing 5 μL of a 10% DMSO in RPMI-1640 media solution containing 10 nM to 100 μM of N-(2,5-dimethoxyphenyl)-2-methylthieno[3,2-d]pyrimidin-4-amine (1 nM to 10 μM final). An aliquot of 45 μL of cells was added to a well of a 96-well microtiter plate containing 5 μL of a 10% DMSO in RPMI-1640 media solution without compound as the control sample for maximal cell proliferation (Lmax). The samples were mixed by agitation and then incubated at 37° C. for 48 h in a 5% CO2-95% humidity incubator. After incubation, the samples were removed from the incubator and 25 μL of CellTiter-Glo™ reagent (Promega) was added. The samples were mixed by agitation and incubated at room temperature for 10-15 min. Plates were then read using a luminescent plate reader (Model SPECTRAfluor Plus, Tecan) to give Ltest values.
(§2) Baseline for GI50 (dose for 50% inhibition of cell proliferation) of initial cell numbers was determined by adding an aliquot of 45 μL of cells or 45 μL of media, respectively, to wells of a 96-well microtiter plate containing 5 μL of a 10% DMSO in RPMI-1640 media solution. The samples were mixed by agitation and then incubated at 37° C. for 0.5 h in a 5% CO2-95% humidity incubator. After incubation, the samples were removed from the incubator and 25 μL of CellTiter-Glo™ reagent (Promega) was added. The samples were mixed by agitation and incubated at 37° C. for 10-15 min at room temperature in a 5% CO2-95% humidity incubator. Fluorescence was read as above, (LStart) defining luminescence for initial cell number used as baseline in GI50 determinations.
(§3) GI50 (dose for 50% inhibition of cell proliferation) is the concentration where [(LTest−Lstart)/(LMax−Lstart)]=0.5.

[3] = tested on: human colon cancer cell line HT29; assay: Inhibition of cell proliferation (GI50) in HT29 cells; settings: HT-29, Table III, 48 h
Description: as §1, §2, §3

[4] = tested on: multi-drug resistant (MDR) murine leukemia cell line P388ADR; assay: Inhibition of cell proliferation (GI50) in P388/ADR cells; settings: Mus musculus, Table IV, read-out: GI50 in Multi-Cancer Cells P388/ADR
Description: as §1, §2, §3
(§4) Several compounds were tested in multi cancer cell lines, including human breast cancer cell lines T-47D, MX-1, SKBR3 and MDAMB435, human hepatocellular carcinoma cell line SNU398, human colon carcinoma cell line HCT116, human sarcoma cell line MES-SA and multi-drug resistant (MDR) human sarcoma cell line MES-SA/ADR, murine leukemia cell line P388 and multi-drug resistant (MDR) murine leukemia cell line P388ADR, and the data are summarized in Table IV.

[5] = tested on: human breast cancer cell line T-47D; assay: Inhibition of cell proliferation (GI50, CellTiter-Glo) in T-47D cells; settings: T47D cells
Description: as §1, §2, §3

[6] = tested on: human sarcoma cell line MES-SA; assay: Inhibition of cell proliferation (GI50) in MES-SA cells; settings: Table IV, read-out: GI50 in Multi-Cancer Cells MES-SA
Description: as §1, §2, §3, §4

[7] = tested on: human breast cancer cell line MX-1; assay: Inhibition of cell proliferation (GI50) in MX-1 cells; settings: MX1 cells
Description: as §1, §2, §3

[8] = tested on: human B cell lymphoblastoid cell line Ramos; assay: Caspase cascade activation in Ramos cells; settings: 48 h, read-out: Caspase Activation Potency EC50 Ramos
[9] = tested on: breast cancer cell line SKBR3; assay: Caspase cascade activation in SKBR3 cells; settings: Homo sapiens, SK-BR-3, 48 h, read-out: Caspase Activation Potency EC50 SKBR3
[10] = 24 h, T47D cells, 24 h, read-out: Caspase activation Potency EC50 T47D (24 h)
[11] = 48 h, T-47D cells, 48 h, read-out: Caspase activation Potency EC50 T-47D (48 h)
[12] = Table IV, read-out: GI50 in Multi-Cancer Cells T47D
[13] = Table IV, read-out: GI50 in Multi-Cancer Cells MX1

SMILES | EC50 [1, 10] [nM] | EC50 [1, 11] [nM] | GI50 [2] [nM] | GI50 [3] [nM] | GI50 [4] [nM] | GI50 ([5]; Table III, 48 h, read-out: GI50 in Cancer Cells T47D) [nM] | GI50 [5, 12] [nM] | GI50 [6] [nM] | GI50 ([7]; Table III, 48 h, read-out: GI50 in Cancer Cells MX1) [nM] | GI50 [7, 13] [nM] | EC50 [8] [nM] | EC50 [9] [nM]
COc1ccc(OC)c(Nc2ncnc3ccsc23)c1 [Example 2, N-(2,5-Dimethoxyphenyl)thieno[3,2-d]pyrimidin-4-amine] | 61 | 105 | 1040 | 3630 | 2600 | 65 | 340 | 5190 | 300 | 800 | – | –
COc1cc(Nc2ncnc3ccsc23)cc(OC)c1 [Example 12, N-(3,5-Dimethoxyphenyl)thieno[3,2-d]pyrimidin-4-amine hydrochloride] | 38 | 62 | – | – | 296 | – | 20 | 364 | – | 17 | 582 | 77
